# Laboratory results from PMC8227162 (Molecules, 2021).
# Entries after “also recorded” stand apart in the source; their conditions may differ. Structures can show the parent of a compound that is named as a salt.
# Tests used:
# [1] = system: MCF7 cells; experiment: SRB cytotoxicity assay, MCF7 cells; format: cell-based; conditions: Homo sapiens, 48 h incubation (Figure 3 legend: 72 h)
# Experimental: (§1) MDA-MB-231, MDA-MB-468, 4T1, and MCF7 cell lines were purchased from American Type Culture Collection (ATCC) (Manassas, VA, USA). RPMI medium supplemented with 5% fetal bovine serum (FBS) was used to culture the cell lines while being maintained in a humidified atmosphere at 37 °C, 5% CO2.
# (§2) Cytotoxicity was assessed after 48 h incubation using sulforhodamine B (SRB) assay as described previously. Cells were fixed using 10% trichloroacetic acid and stained with SRB. The cytotoxicity experiments were performed in triplicate (n = 3). The 50% growth inhibition (IC50) was then assessed by using SRB assay after 48 h incubation. Data are represented as the mean ± SD of three independent experiments of each cell line.
# [2] = system: 4T1 cells; experiment: SRB cytotoxicity assay, 4T1 cells; format: cell-based, murine; conditions: Mus musculus, 48 h incubation (Figure 3 legend: 72 h)
# Experimental: as §1, §2
# [3] = system: 4T1 tumors; experiment: In vivo antitumor effects in 4T1 tumor-bearing Balb/c mice; conditions: 3 mg/kg (TFA equivalent) IV, 9-day treatment
# Experimental: Female Balb/c mice (6–12 weeks old, mean weight = 20–25 g) were supplied by the Laboratory Animal Care Facility of the Arabian Gulf University (AGU), Bahrain. […] All animal experiments were performed based on the rules and regulations of the Arabian Gulf University Animal Care Policy and approved by the Research and Ethics Committee, REC Approval No: G-E001-PI-12/16.
# To propagate the tumor, female Balb/c mice (n = 3) were injected with one million 4T1 mammary carcinoma cells bilaterally (right and left side) on the flanks. The tumor was then collected and cut down into small pieces with an average size of 1–3 mm^3 in sterile PBS to sustain tumor viability. Following this, 5 mice of each group were shaved, anesthetized, and inoculated with one small piece of the 4T1 tumor tissue subcutaneously. […] The first day of drug administration was set as Day 0. Tumor volume was measured by a manual caliber, and the volume was estimated by using the formula:V (mm^3) = ((transverse section (W)^2 × longitudinal cross section (L))/2)
# Tumor volumes were normalized by using the initial tumor volume and represented as the mean ± standard error of the mean (SEM). Additionally, the body weight of mice was measured every day and normalized daily for 9 days.
# [4] = system: MDA-MB-231, MDA-MB-468, 4T1, and MCF7 cells; experiment: SRB cytotoxicity assay, all four breast cancer cell lines; format: cell-based; conditions: over the four breast cancer cell lines; read-out: IC50 span over all treatments
# Experimental: as §1, §2
# [5] = system: MDA-MB-231 cells; experiment: SRB cytotoxicity assay, MDA-MB-231 cells; format: cell-based; conditions: Homo sapiens, 48 h incubation (Figure 3 legend: 72 h)
# Experimental: as §1, §2
# [6] = system: murine bone marrow cells; design: method as in PMID 12110316; conditions: cited from earlier work
# [7] = system: MDA-MB-468 cells; experiment: SRB cytotoxicity assay, MDA-MB-468 cells; format: cell-based; conditions: Homo sapiens, 48 h incubation (Figure 3 legend: 72 h)
# Experimental: as §1, §2
smiles,measurement,setting,value
"COc1cc2cc(C(=O)N3CC(CCl)c4c3cc(O)c3ccoc43)[nH]c2c(OC)c1OC (stereo not shown) [TFA, tafuramycin A]",IC50,[1],4.55 nM
same,IC50,[2],5.9 nM
same,Body weight changes,[3],not associated with any statistically significant weight loss; also recorded: no significant weight loss
same,IC50,[4],4.55 to 20.2 nM
same,IC50,[5],4.6 nM
same,Toxicity against murine bone marrow cells,[6],only mild toxicity
same,IC50,[7],18.3 nM
